Results reported in patent publication EP0684822B1, “CARBOCYCLIC DEOXYGUANOSINE ANALOGS FOR THE TREATMENT OF VIRAL INFECTIONS” (SOUTHERN RESEARCH INSTITUTE, priority 1993, dated 1994).

Tests used:
[1] = target: T1, HSV DNA polymerase (Human herpesvirus 1, UniProt P04293); assay: Inhibition of [3H]dGTP incorporation into DNA by purified HSV DNA polymerase; type: biochemical, HSV-1; details: for IC50: incorporation of 1 µM [3H]dGTP into DNA
T1 construct: HSV DNA polymerase was purified from H.Ep.-2 cells infected with HSV-1; made in house; host or cells: H.Ep.-2 cells infected with HSV-1
T1 sequence (P10226 whole entry): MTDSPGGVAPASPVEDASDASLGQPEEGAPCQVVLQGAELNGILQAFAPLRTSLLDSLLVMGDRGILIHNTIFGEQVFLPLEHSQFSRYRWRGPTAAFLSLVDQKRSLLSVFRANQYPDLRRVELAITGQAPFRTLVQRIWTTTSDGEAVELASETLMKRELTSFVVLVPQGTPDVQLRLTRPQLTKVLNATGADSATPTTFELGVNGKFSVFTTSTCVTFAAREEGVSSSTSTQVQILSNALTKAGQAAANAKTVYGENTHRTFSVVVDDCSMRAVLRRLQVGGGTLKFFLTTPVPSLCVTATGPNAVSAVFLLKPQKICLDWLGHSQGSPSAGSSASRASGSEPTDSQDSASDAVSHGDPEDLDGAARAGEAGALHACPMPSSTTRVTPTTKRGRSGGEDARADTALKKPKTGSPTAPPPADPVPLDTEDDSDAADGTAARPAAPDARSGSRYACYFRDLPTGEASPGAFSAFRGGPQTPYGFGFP
T1 sequence (P04293 whole entry): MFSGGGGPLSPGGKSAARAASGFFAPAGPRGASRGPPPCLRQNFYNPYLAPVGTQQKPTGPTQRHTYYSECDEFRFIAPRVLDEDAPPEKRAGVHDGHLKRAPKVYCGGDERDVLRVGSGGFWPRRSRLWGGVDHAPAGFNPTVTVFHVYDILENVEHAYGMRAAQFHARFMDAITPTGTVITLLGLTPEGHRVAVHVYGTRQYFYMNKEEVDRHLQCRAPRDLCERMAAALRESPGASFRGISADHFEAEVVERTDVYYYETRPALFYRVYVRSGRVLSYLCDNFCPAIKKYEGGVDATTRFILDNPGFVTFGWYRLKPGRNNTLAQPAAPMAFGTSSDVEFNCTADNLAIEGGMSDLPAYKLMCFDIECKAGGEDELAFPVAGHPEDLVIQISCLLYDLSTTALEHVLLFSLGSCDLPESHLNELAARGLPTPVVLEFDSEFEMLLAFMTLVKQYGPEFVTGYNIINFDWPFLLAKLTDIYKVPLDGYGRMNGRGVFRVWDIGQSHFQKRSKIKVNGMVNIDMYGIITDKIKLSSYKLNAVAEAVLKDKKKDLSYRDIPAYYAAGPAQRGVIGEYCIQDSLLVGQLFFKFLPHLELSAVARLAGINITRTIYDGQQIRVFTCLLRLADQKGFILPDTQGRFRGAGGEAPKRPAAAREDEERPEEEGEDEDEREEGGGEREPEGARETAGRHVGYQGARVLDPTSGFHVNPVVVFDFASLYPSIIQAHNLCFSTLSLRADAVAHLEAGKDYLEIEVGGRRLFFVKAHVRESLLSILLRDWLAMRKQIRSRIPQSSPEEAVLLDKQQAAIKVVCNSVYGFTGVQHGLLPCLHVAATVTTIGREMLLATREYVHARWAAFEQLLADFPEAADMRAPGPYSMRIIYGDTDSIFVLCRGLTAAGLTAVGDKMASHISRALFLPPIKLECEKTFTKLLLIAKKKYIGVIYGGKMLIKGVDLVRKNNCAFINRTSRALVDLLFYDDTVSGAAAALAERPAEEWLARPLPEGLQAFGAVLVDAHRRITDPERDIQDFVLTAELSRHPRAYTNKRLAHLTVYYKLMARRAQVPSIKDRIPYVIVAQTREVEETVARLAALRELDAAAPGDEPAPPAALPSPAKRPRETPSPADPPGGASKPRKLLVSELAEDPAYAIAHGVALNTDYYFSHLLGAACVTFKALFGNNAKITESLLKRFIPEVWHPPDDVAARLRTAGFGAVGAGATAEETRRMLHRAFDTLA
Procedure: (§1) HSV DNA polymerase was purified from H.Ep.-2 cells infected with HSV-1. Approximately 4 x 10^8 cells were infected with virus at a multiplicity of infection of 10 CCID50/cell. After a 1 hr adsorption period, the unattached virus was waxhed from the cells and the cultures were returned to the incubator at 37°C for another 8 hr. The cells were collected by centrifugation and mixed with a 0.3 M potassium phosphate buffer, pH 7.5, containing 0.3% Triton X-100 and 10% glycerol. The HSV DNA polymerase was purified approximately 288-fold from this crude extract, as described by Derse et al. (J. Biol. Chem. 257:10251, 1982). The specific activity of the HSV DNA polymerase was 4140 units/mg protein. Human DNA polymerases, a, β, and γ, were purified from 5.0 ml of packed K562 cells grown in cell culture as previously described (Parker et al., J. Biol. Chem. 266:1754, 1991). The specific activities of DNA polymerases α, β, and γ used in these studies were approximately 34, 1600, and 8 units/mg protein, respectively. One unit of enzyme activity is defined as the amount of enzyme needed to incorporate 1 nmol of [^3H]dGTP into acid-precipitable material per hour at 37°C, using gapped DNA as a template. HSV DNA polymerase activity was measured in 50 µl volumes containing 50 mM Tris, pH 8.0, 3 mM MgCl2, 0.5 mM dithiothreitol, 0.2 mg/ml bovine serum albumin, 0.2 M KCl, 12.5 µg/ml gapped DNA, 10 µM [^3H]dGTP (12 Ci/mmol), and 100 µM each of dATP, dCTP, and TTP. DNA polymerase α activity was measured in 50 µl volumes containing 50 mM Tris, pH 8.0, 1 mg/ml bovine serum albumin, 10 mM MgCl2, 1 mM dithiothreitol, 100 µg/ml gapped duplex DNA, 10 µM [^3H]dGTP (1 Ci/mmol), and 50 µM of each dATP, dCTP and TTP. DNA polymerase β and γ activities were measured as described for DNA polymerase α, except that the reactions included 100 mM KCl. After incubation for the desired time, the DNA in each sample was precipitated onto glass fiber filters using a 5% trichloroacetic acid solution containing 10 mM pyrophosphate. The filters were then washed three times with this solution followed by two washes with 95% ethanol, dried, and counted for radioactivity.
(§2) 2'CdG-TP was a potent competitive inhibitor of the incorporation of [^3H]dGTP into DNA by both the HSV DNA polymerase and the host DNA polymerase α (Fig. 9).
(§3) Under similar incubation conditions, the concentration of D-2'CdG-TP required to inhibit the incorporation of 1 µM [^3H]dGTP into the DNA by 50% was 2 µM with DNA polymerase a, but was 2200 and 300 µM for DNA polymerase β and γ, respectively (Table 4). […]

[2] = target: T2, DNA polymerase α (Homo sapiens, UniProt P09884); assay: Inhibition of [3H]dGTP incorporation into DNA by host DNA polymerase α; type: biochemical; details: for IC50: incorporation of 1 µM [3H]dGTP into DNA
T2 construct: Human DNA polymerases, a, β, and γ, were purified from 5.0 ml of packed K562 cells; endogenous in cells; host or cells: K562 cells
T2 sequence (P09884 whole entry): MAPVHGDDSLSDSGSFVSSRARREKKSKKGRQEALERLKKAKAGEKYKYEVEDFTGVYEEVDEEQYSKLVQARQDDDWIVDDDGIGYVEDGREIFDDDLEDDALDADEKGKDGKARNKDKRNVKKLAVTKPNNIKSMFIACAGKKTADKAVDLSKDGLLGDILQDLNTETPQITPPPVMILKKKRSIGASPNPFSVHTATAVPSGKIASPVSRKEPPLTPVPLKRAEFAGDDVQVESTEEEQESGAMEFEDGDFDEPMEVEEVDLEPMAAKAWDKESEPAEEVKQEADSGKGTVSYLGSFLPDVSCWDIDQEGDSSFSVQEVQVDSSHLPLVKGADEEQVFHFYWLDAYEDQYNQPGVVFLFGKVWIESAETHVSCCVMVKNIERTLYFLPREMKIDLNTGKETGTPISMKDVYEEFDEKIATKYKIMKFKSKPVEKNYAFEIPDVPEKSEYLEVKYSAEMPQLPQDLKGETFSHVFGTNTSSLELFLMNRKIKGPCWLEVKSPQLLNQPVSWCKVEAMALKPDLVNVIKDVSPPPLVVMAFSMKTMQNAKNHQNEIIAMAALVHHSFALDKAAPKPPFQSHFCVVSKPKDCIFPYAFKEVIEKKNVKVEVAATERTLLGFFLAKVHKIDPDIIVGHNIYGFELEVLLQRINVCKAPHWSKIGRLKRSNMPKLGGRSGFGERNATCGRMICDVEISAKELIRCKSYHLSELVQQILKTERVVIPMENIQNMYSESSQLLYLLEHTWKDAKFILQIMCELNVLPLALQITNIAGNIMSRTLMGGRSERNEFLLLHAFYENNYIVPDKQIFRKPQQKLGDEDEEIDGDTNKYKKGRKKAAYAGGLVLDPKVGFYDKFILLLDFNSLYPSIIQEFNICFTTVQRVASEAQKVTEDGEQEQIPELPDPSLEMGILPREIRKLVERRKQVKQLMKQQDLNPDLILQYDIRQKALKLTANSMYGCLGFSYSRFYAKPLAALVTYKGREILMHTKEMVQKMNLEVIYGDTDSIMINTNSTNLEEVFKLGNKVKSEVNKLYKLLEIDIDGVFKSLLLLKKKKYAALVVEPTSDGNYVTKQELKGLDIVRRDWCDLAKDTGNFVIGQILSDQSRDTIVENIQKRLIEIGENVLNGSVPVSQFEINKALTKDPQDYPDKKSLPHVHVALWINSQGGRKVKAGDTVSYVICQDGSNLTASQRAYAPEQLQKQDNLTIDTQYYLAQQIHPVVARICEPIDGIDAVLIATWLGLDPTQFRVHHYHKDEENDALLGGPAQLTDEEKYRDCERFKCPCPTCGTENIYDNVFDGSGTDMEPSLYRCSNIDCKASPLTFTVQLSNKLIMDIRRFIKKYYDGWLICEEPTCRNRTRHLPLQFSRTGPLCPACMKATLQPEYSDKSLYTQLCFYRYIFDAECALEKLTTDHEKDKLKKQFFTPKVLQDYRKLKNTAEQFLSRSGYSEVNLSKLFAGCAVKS
T2 sequence (Q14181 whole entry partner): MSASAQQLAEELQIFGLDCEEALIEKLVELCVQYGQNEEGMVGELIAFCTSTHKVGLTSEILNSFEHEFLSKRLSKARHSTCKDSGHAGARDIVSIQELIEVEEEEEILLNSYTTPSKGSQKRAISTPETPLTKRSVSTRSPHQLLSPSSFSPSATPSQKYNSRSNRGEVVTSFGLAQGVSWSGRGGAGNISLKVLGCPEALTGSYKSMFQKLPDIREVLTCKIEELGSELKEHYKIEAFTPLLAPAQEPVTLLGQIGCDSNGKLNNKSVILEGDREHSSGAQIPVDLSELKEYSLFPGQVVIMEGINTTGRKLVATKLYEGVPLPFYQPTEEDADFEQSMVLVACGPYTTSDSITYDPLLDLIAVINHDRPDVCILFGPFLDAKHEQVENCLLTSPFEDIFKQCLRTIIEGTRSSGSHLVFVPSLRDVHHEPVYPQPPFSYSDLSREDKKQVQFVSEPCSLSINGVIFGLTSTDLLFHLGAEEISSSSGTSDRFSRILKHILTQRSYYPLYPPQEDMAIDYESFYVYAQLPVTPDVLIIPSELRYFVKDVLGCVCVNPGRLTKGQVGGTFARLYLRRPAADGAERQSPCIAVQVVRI
T2 sequence (P49642 whole entry partner): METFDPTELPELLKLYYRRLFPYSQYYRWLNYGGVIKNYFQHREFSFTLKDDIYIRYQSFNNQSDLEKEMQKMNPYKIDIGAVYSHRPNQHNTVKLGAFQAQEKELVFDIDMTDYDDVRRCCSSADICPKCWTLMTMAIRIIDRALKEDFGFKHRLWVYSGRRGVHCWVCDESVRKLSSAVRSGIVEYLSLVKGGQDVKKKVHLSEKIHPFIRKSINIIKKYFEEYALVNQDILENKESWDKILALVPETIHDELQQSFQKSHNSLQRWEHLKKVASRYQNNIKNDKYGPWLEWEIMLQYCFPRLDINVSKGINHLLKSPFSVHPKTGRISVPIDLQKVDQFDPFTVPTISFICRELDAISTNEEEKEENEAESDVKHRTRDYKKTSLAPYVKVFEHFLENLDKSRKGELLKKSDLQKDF
T2 sequence (P49643 whole entry partner): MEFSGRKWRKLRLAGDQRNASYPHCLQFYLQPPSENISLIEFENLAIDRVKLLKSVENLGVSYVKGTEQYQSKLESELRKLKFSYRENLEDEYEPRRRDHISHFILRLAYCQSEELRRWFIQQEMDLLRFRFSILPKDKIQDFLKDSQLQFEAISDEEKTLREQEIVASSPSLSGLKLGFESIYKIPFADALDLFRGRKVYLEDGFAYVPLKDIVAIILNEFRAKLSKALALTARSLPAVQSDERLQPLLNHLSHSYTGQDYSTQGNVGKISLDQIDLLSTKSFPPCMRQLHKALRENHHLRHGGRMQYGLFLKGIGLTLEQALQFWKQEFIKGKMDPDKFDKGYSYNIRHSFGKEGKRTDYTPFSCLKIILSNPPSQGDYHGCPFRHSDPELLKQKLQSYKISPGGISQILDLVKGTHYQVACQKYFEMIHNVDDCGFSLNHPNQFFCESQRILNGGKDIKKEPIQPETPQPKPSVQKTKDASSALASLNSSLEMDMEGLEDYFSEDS
Procedure: as §1, §2, §3

[3] = target: T3, DNA polymerase β (Homo sapiens, UniProt P06746); assay: Inhibition of [3H]dGTP incorporation into DNA by DNA polymerase β; type: biochemical; details: incorporation of 1 µM [3H]dGTP into DNA
T3 construct: Human DNA polymerases, a, β, and γ, were purified from 5.0 ml of packed K562 cells; endogenous in cells; host or cells: K562 cells
Procedure: (§4) HSV DNA polymerase was purified from H.Ep.-2 cells infected with HSV-1. Approximately 4 x 10^8 cells were infected with virus at a multiplicity of infection of 10 CCID50/cell. After a 1 hr adsorption period, the unattached virus was waxhed from the cells and the cultures were returned to the incubator at 37°C for another 8 hr. The cells were collected by centrifugation and mixed with a 0.3 M potassium phosphate buffer, pH 7.5, containing 0.3% Triton X-100 and 10% glycerol. The HSV DNA polymerase was purified approximately 288-fold from this crude extract, as described by Derse et al. (J. Biol. Chem. 257:10251, 1982). The specific activity of the HSV DNA polymerase was 4140 units/mg protein. […] HSV DNA polymerase activity was measured in 50 µl volumes containing 50 mM Tris, pH 8.0, 3 mM MgCl2, 0.5 mM dithiothreitol, 0.2 mg/ml bovine serum albumin, 0.2 M KCl, 12.5 µg/ml gapped DNA, 10 µM [^3H]dGTP (12 Ci/mmol), and 100 µM each of dATP, dCTP, and TTP. DNA polymerase α activity was measured in 50 µl volumes containing 50 mM Tris, pH 8.0, 1 mg/ml bovine serum albumin, 10 mM MgCl2, 1 mM dithiothreitol, 100 µg/ml gapped duplex DNA, 10 µM [^3H]dGTP (1 Ci/mmol), and 50 µM of each dATP, dCTP and TTP. DNA polymerase β and γ activities were measured as described for DNA polymerase α, except that the reactions included 100 mM KCl. […]

[4] = target: T4, DNA polymerase γ (Homo sapiens, UniProt P54098); assay: Inhibition of [3H]dGTP incorporation into DNA by DNA polymerase γ; type: biochemical; details: incorporation of 1 µM [3H]dGTP into DNA
T4 sequence (P54098 26-1239): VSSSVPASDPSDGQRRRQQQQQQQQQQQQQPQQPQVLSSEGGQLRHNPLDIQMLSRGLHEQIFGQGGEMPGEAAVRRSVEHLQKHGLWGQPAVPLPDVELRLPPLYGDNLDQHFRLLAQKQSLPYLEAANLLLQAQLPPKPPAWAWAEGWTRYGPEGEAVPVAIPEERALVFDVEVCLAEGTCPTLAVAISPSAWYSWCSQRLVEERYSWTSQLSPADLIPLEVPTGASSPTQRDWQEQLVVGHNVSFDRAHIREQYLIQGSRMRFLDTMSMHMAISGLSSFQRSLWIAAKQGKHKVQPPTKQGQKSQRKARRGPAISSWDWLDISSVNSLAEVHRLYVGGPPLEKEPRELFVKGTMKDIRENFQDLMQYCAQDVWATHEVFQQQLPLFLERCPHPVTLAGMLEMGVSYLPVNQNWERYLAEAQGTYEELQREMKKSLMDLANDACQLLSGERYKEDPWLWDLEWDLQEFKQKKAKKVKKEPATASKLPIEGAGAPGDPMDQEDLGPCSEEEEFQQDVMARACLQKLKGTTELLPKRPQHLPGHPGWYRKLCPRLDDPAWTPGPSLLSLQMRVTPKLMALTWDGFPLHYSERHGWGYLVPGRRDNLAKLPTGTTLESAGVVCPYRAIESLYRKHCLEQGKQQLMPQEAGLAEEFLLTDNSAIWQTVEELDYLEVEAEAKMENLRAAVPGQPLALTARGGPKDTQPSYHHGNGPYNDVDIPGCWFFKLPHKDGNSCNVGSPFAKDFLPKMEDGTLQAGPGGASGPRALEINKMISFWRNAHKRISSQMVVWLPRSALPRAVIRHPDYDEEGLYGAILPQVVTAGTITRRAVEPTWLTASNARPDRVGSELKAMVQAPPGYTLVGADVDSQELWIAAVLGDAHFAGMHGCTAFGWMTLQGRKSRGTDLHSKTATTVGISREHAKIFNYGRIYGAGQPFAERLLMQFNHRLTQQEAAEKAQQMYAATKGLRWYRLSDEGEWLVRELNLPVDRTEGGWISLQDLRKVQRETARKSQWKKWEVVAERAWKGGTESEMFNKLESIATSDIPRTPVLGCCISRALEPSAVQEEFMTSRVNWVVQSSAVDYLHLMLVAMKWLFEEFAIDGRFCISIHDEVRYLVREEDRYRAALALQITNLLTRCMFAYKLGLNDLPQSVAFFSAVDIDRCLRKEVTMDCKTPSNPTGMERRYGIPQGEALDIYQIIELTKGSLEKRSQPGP
T4 sequence (Q9UHN1 26-485 partner): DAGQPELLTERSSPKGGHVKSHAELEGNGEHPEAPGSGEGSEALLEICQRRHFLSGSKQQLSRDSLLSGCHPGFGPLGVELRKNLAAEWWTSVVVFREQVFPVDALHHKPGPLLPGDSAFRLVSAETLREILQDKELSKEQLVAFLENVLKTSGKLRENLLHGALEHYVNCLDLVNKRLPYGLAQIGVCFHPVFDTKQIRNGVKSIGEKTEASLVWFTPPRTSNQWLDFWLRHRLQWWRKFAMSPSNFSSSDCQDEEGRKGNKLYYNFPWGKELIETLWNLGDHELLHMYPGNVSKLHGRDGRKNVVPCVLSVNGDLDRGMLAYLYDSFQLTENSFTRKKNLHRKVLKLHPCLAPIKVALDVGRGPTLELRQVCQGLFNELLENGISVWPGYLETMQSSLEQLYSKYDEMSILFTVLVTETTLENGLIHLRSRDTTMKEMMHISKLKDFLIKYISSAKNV
Procedure: as §4

| Structure (SMILES) | IC50 [1] [µM] | IC50 [2] [µM] | IC50 [3] [mM] | IC50 [4] [µM] | Ki/Km ratio ([1]; Km of dGTP) | Ki ([1]; competitive with [3H]dGTP) [nM] | Ki/Km ratio ([2]; Km of dGTP) | Ki ([2]; competitive with [3H]dGTP) [nM] |
| --- | --- | --- | --- | --- | --- | --- | --- | --- |
| Nc1nc2c(ncn2[C@H]2C[C@@H](COP(=O)(O)OP(=O)(O)OP(=O)(O)O)[C@H](O)C2)c(=O)[nH]1 [L-2'CdG-TP] | 460 | 470 | 1.4 | 215 | – | – | – | – |
| Nc1nc2c(ncn2[C@@H]2C[C@H](COP(=O)(O)OP(=O)(O)OP(=O)(O)O)[C@@H](O)C2)c(=O)[nH]1 [D-2'CdG-TP] | 1.5 | 2 | – | 300 | approximately 1 | 350 | approximately 1 | 950 |
